Assay results published in ChEMBL document CHEMBL1201862, “PubChem BioAssay data set” (2004).
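1) Cells in 96-well plates. 2) Compound, 48 h, 5 concentrations. 3) Linear interpolation between surrounding doses. 4) Unreached endpoint = highest concentration. Here, GI50 denotes the concentration required for 50% inhibition of growth.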 Active and inactive are the calls of the source. Cut-off read from the data, not from the text of the source: active = GI50 up to about 1.1 µM and inactive = higher.

Legend:
Experiment in all cases: NCI tumour cell line growth inhibition, 48 h
HOP-18 = system: HOP-18
RXF 393 = system: RXF 393
SF-268 = system: SF-268
DMS-114 = system: DMS-114
OVCAR-5 = system: OVCAR-5
LOX IMVI = system: LOX IMVI
SF-295 = system: SF-295
NCI-H226 = system: NCI-H226
HCT-15 = system: HCT-15
NCI-H460 = system: NCI-H460
MOLT-4 = system: MOLT-4
M14 = system: M14
NCI-H522 = system: NCI-H522
UACC-62 = system: UACC-62
MCF7 = system: MCF7
PC-3 = system: PC-3
OVCAR-4 = system: OVCAR-4
A498 = system: A498
MDA-N = system: MDA-N
MDA-MB-231 = system: MDA-MB-231

## CC(C)=CCC/C(C)=C/C=C/C(C)=C/C1C[C@@]2(C(O)O1)[C@H](CCCO)/C(=C(/C)C=O)CC[C@]2(C)O (stereo not given in full)
HOP-18
  GI50: 19.1 µM (inactive)
RXF 393
  GI50: 18.6 µM (inactive)
SF-268
  GI50: 15.2 µM (inactive)
DMS-114
  GI50: 13.3 µM (inactive)
OVCAR-5
  GI50: 40.8 µM (inactive)
LOX IMVI
  GI50: 11.7 µM (inactive)
SF-295
  GI50: 11.4 µM (inactive)
NCI-H226
  GI50: 22.4 µM (inactive)
HCT-15
  GI50: 16.3 µM
NCI-H460
  GI50: 6.64 µM (inactive)
MOLT-4
  GI50: 4.95 µM (inactive)
M14
  GI50: 13.5 µM (inactive)
NCI-H522
  GI50: 19.5 µM (inactive)

## CC1CC[P+](c2ccccc2)(c2ccccc2)c2c1ccc1ccccc21 (stereo not given)
HOP-18
  GI50: 2.52 µM (inactive)
RXF 393
  GI50: 9.08 µM (inactive)
SF-268
  GI50: 4.35 µM (inactive)
OVCAR-5
  GI50: 5.26 µM (inactive)
LOX IMVI
  GI50: 2.33 µM (inactive)
UACC-62
  GI50: 2.51 µM (inactive)
MCF7
  GI50: 2.26 µM (inactive)
SF-295
  GI50: 3.5 µM (inactive)
HCT-15
  GI50: 31.9 µM
NCI-H460
  GI50: 2 µM (inactive)
MOLT-4
  GI50: 5.66 µM (inactive)
M14
  GI50: 3.53 µM (inactive)
PC-3
  GI50: 0.948 µM (active)
NCI-H522
  GI50: 0.946 µM (active)
OVCAR-4
  GI50: 6.76 µM (inactive)

## O=C1CCC23CC(C=CC=C12)n1c(=O)n(-c2ccccc2)c(=O)n13 (stereo not given)
HOP-18
  GI50: > 100 µM (inactive)
RXF 393
  GI50: 99.3 µM (inactive)
A498
  GI50: > 100 µM (inactive)
SF-268
  GI50: > 73.6 µM (inactive)
DMS-114
  GI50: 37.3 µM (inactive)
OVCAR-5
  GI50: > 100 µM (inactive)
LOX IMVI
  GI50: > 72.1 µM (inactive)
UACC-62
  GI50: > 100 µM (inactive)
MCF7
  GI50: 10.9 µM (inactive)
SF-295
  GI50: > 100 µM (inactive)
NCI-H226
  GI50: > 63.4 µM (inactive)
HCT-15
  GI50: > 78.7 µM
NCI-H460
  GI50: > 100 µM (inactive)
MOLT-4
  GI50: 49.7 µM (inactive)
NCI-H522
  GI50: > 100 µM (inactive)
OVCAR-4
  GI50: > 100 µM (inactive)

## Cc1ccc(NC(=O)OCC(COc2ccc(Cl)cc2)OC(=O)Nc2ccc(C)cc2)cc1 (stereo not given)
HOP-18
  GI50: > 100 µM (inactive)
RXF 393
  GI50: 12.9 µM (inactive)
A498
  GI50: 13.2 µM (inactive)
SF-268
  GI50: 22.5 µM (inactive)
DMS-114
  GI50: 17.3 µM (inactive)
OVCAR-5
  GI50: 27.9 µM (inactive)
LOX IMVI
  GI50: 21.2 µM (inactive)
UACC-62
  GI50: 19.1 µM (inactive)
SF-295
  GI50: 23.5 µM (inactive)
NCI-H226
  GI50: 16.5 µM (inactive)
HCT-15
  GI50: 29.7 µM
NCI-H460
  GI50: 25.9 µM (inactive)
MOLT-4
  GI50: 16.2 µM (inactive)
M14
  GI50: 17.1 µM (inactive)
NCI-H522
  GI50: 29.8 µM (inactive)
OVCAR-4
  GI50: 13.7 µM (inactive)

## CCCCCCCCCCCCCC(=O)OC1C(O)C(CO)OC(OC)C1NC(=O)N(CCCl)N=O (stereo not given)
HOP-18
  GI50: > 100 µM (inactive)
RXF 393
  GI50: 47 µM (inactive)
SF-268
  GI50: 6.27 µM (inactive)
OVCAR-5
  GI50: > 100 µM (inactive)
LOX IMVI
  GI50: 22.5 µM (inactive)
UACC-62
  GI50: 5.06 µM (inactive)
SF-295
  GI50: 29 µM (inactive)
NCI-H226
  GI50: > 100 µM (inactive)
HCT-15
  GI50: > 100 µM
NCI-H460
  GI50: 18.7 µM (inactive)
MOLT-4
  GI50: 17.3 µM (inactive)
M14
  GI50: > 100 µM (inactive)
NCI-H522
  GI50: 72.9 µM (inactive)
OVCAR-4
  GI50: > 100 µM (inactive)

## C1CSCCSCSCCS1
RXF 393
  GI50: > 100 µM (inactive)
A498
  GI50: > 100 µM (inactive)
SF-268
  GI50: > 100 µM (inactive)
OVCAR-5
  GI50: > 100 µM (inactive)
LOX IMVI
  GI50: > 100 µM (inactive)
UACC-62
  GI50: > 100 µM (inactive)
MCF7
  GI50: > 100 µM (inactive)
MDA-N
  GI50: > 100 µM (inactive)
SF-295
  GI50: > 100 µM (inactive)
NCI-H226
  GI50: > 100 µM (inactive)
HCT-15
  GI50: > 100 µM
NCI-H460
  GI50: > 100 µM (inactive)
M14
  GI50: > 100 µM (inactive)
MDA-MB-231
  GI50: > 100 µM (inactive)
PC-3
  GI50: > 100 µM (inactive)
NCI-H522
  GI50: > 100 µM (inactive)
OVCAR-4
  GI50: > 100 µM (inactive)

## c1cncc(O[Si](Oc2cccnc2)(Oc2cccnc2)Oc2cccnc2)c1
HOP-18
  GI50: > 100 µM (inactive)
RXF 393
  GI50: > 100 µM (inactive)
DMS-114
  GI50: > 100 µM (inactive)
OVCAR-5
  GI50: > 100 µM (inactive)
LOX IMVI
  GI50: > 100 µM (inactive)
UACC-62
  GI50: > 100 µM (inactive)
SF-295
  GI50: > 100 µM (inactive)
NCI-H226
  GI50: > 100 µM (inactive)
HCT-15
  GI50: > 100 µM
NCI-H460
  GI50: > 100 µM (inactive)
MOLT-4
  GI50: > 100 µM (inactive)
M14
  GI50: > 100 µM (inactive)
OVCAR-4
  GI50: > 100 µM (inactive)

## N#Cc1ccc(C2Oc3ccc(Cl)cc3C=C2[N+](=O)[O-])cc1 (stereo not given)
RXF 393
  GI50: 4.99 µM (inactive)
A498
  GI50: 2.38 µM (inactive)
SF-268
  GI50: 1.91 µM (inactive)
OVCAR-5
  GI50: 2.09 µM (inactive)
LOX IMVI
  GI50: 1.04 µM (active)
UACC-62
  GI50: 1.63 µM (inactive)
MCF7
  GI50: 1.4 µM (inactive)
MDA-N
  GI50: 1.53 µM (inactive)
SF-295
  GI50: 2.87 µM (inactive)
NCI-H226
  GI50: 10.6 µM (inactive)
HCT-15
  GI50: 1.07 µM
NCI-H460
  GI50: 2.22 µM (inactive)
MOLT-4
  GI50: 0.906 µM (active)
M14
  GI50: 1.36 µM (inactive)
MDA-MB-231
  GI50: 1.8 µM (inactive)
PC-3
  GI50: 1.38 µM (inactive)
NCI-H522
  GI50: 1.34 µM (inactive)
OVCAR-4
  GI50: 1.79 µM (inactive)

## CCOC(=O)N1C=NC23C(c4ccccc4)C(c4ccccc4)C12C(=O)N(C)C(=O)N3C (stereo not given)
HOP-18
  GI50: 1.52 µM (inactive)
RXF 393
  GI50: 16.3 µM (inactive)
A498
  GI50: > 100 µM (inactive)
SF-268
  GI50: > 100 µM (inactive)
OVCAR-5
  GI50: > 100 µM (inactive)
LOX IMVI
  GI50: > 100 µM (inactive)
UACC-62
  GI50: > 100 µM (inactive)
SF-295
  GI50: > 100 µM (inactive)
HCT-15
  GI50: > 100 µM
NCI-H460
  GI50: > 100 µM (inactive)
MOLT-4
  GI50: > 100 µM (inactive)
M14
  GI50: > 100 µM (inactive)
NCI-H522
  GI50: > 100 µM (inactive)
OVCAR-4
  GI50: > 100 µM (inactive)

## N#C[C@H](OC1OC(COC2OC(CO)C(O)C(O)C2O)C(O)C(O)C1O)c1ccccc1 (stereo not given in full)
HOP-18
  GI50: > 250 µM (inactive)
RXF 393
  GI50: > 250 µM (inactive)
A498
  GI50: > 11.6 µM (inactive)
SF-268
  GI50: > 250 µM (inactive)
DMS-114
  GI50: > 250 µM (inactive)
OVCAR-5
  GI50: > 250 µM (inactive)
LOX IMVI
  GI50: > 195 µM (inactive)
UACC-62
  GI50: 247 µM (inactive)
MCF7
  GI50: > 250 µM (inactive)
SF-295
  GI50: 203 µM (inactive)
NCI-H226
  GI50: 191 µM (inactive)
HCT-15
  GI50: > 250 µM
NCI-H460
  GI50: > 250 µM (inactive)
MOLT-4
  GI50: 158 µM (inactive)
NCI-H522
  GI50: > 200 µM (inactive)
OVCAR-4
  GI50: > 250 µM (inactive)

## SC1=Nc2ccccc2-c2nc(-c3ccccc3)cc(-c3ccc(Br)cc3)c2C1
RXF 393
  GI50: 1.7 µM (inactive)
A498
  GI50: 1.01 µM (active)
SF-268
  GI50: 2.1 µM (inactive)
OVCAR-5
  GI50: 2.81 µM (inactive)
LOX IMVI
  GI50: 2.99 µM (inactive)
UACC-62
  GI50: 2.26 µM (inactive)
MCF7
  GI50: 4.59 µM (inactive)
MDA-N
  GI50: 2.51 µM (inactive)
SF-295
  GI50: 1.89 µM (inactive)
NCI-H226
  GI50: 3.18 µM (inactive)
HCT-15
  GI50: 3.54 µM
NCI-H460
  GI50: 0.859 µM (active)
MOLT-4
  GI50: 18.2 µM (inactive)
M14
  GI50: 2.4 µM (inactive)
MDA-MB-231
  GI50: 1.44 µM (inactive)
PC-3
  GI50: 6.44 µM (inactive)
NCI-H522
  GI50: 1.68 µM (inactive)
OVCAR-4
  GI50: 0.433 µM (active)
